Data published in patent publication US20240246942A1, “KINASE INHIBITORS FOR THE TREATMENT OF NEURODEGENERATIVE DISEASES” (priority 2020, published 2024).

Legend:
Assay in all cases: biochemical
[1] = target: T1, panel of 374 wild-type kinases (Homo sapiens, UniProt Q6XUX3); settings: read-out: % Enzyme Activity (relative to DMSO controls), kinase RIPK5
T1 construct: purchased Reaction Biology Corporation
T1 sequence (Q6XUX3 1-929): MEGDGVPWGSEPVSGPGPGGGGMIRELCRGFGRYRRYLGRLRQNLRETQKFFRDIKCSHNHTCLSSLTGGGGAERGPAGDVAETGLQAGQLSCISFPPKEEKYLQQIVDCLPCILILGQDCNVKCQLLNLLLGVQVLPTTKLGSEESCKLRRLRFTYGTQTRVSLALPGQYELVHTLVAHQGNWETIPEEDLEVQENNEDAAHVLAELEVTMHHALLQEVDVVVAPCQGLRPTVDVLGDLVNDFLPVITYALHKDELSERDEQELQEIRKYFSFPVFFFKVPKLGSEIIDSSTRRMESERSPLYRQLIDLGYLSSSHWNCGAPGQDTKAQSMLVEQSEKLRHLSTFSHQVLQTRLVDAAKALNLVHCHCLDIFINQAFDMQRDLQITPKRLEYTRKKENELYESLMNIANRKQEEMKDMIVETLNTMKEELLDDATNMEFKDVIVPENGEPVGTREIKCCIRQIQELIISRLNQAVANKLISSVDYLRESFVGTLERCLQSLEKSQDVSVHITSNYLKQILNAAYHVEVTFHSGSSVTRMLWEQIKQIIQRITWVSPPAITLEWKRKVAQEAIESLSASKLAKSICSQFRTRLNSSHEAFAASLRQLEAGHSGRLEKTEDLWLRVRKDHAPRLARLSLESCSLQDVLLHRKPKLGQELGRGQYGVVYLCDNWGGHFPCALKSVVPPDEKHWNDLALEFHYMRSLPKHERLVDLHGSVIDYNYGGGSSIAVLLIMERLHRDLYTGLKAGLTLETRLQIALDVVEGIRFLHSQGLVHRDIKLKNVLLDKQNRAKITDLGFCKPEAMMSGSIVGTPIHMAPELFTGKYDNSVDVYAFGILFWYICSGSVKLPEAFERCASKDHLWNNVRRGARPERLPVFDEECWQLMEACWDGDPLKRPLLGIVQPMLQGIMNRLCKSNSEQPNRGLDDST

[2] = target: T2, panel of 374 wild-type kinases (Homo sapiens, UniProt Q9UL54); settings: read-out: % Enzyme Activity (relative to DMSO controls), kinase TAOK2/TAO1
T2 construct: purchased Reaction Biology Corporation
T2 sequence (Q9UL54 1-1235): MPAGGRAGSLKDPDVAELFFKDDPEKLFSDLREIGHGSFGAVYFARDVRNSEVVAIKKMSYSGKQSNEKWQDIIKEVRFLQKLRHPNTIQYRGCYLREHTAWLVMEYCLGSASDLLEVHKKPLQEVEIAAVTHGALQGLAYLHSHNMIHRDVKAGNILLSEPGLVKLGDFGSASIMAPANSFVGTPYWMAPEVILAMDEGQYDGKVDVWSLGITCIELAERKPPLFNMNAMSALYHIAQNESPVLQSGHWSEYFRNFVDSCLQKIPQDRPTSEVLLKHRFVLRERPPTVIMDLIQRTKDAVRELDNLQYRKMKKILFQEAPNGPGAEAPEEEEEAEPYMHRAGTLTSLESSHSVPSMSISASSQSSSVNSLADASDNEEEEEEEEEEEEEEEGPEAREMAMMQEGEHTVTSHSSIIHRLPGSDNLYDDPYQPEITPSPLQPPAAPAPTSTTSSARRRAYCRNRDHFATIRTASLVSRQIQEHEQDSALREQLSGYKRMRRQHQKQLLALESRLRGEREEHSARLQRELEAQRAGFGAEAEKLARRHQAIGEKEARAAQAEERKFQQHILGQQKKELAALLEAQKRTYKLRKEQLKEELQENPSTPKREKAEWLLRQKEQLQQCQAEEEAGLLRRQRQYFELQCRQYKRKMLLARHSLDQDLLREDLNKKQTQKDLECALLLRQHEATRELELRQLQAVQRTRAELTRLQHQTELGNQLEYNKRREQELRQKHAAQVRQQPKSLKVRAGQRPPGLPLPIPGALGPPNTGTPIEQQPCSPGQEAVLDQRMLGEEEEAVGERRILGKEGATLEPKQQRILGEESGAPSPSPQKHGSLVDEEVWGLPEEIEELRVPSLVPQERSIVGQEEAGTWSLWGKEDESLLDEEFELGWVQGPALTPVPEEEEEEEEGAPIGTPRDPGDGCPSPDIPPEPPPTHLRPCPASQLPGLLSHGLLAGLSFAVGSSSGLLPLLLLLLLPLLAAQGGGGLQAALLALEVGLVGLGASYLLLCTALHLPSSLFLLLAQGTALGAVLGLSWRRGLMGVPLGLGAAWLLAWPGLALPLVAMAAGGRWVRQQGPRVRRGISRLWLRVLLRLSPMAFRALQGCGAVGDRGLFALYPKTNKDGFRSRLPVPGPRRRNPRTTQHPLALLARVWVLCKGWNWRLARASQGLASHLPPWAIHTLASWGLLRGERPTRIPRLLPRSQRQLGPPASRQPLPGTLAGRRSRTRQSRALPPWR

[3] = target: T3, panel of 374 wild-type kinases (Homo sapiens, UniProt P49674); settings: read-out: % Enzyme Activity (relative to DMSO controls), CK1epsilon
T3 construct: purchased Reaction Biology Corporation
T3 sequence (P49674 whole entry): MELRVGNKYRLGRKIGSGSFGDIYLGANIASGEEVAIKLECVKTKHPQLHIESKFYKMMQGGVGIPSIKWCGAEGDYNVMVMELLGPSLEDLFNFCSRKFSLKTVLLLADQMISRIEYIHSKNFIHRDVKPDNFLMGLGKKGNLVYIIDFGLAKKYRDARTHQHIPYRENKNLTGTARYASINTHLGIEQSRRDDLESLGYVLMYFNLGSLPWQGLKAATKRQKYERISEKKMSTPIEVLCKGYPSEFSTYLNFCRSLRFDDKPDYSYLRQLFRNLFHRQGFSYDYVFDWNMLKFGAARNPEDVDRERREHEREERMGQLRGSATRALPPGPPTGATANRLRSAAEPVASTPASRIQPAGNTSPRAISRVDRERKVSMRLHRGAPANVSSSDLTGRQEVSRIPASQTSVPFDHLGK

Row | Compound | remaining activity at 5 µM [1] | remaining activity at 5 µM [2] | remaining activity at 5 µM [3] | remaining activity at 10 µM ([1]; 10 uM) | remaining activity at 10 µM ([2]; 10 uM) | remaining activity at 10 µM ([3]; 10 uM)
1 | O=C(Nc1cnn(-c2csc(C(=O)NC3COC3)c2)c1)Nc1c(F)cccc1Cl [Compound 25, 4-(4-(3-(2-chloro-6-fluorophenyl)ureido)-1H-pyrazol-1-yl)-N-(oxetan-3-yl)thiophene-2-carboxamide] | 95.5% | 88.2% | 88.6% | – | – | –
2 | O=C(Nc1cnn(-c2csc(C(=O)NC3COC3)c2)c1)Nc1ccccc1Cl [Compound 17, 4-(4-(3-(2-chlorophenyl)ureido)-1H-pyrazol-1-yl)-N-(oxetan-3-yl)thiophene-2-carboxamide] | 102% | 101% | 89.6% | – | – | –
3 | Cc1sc(C(=O)NC2COC2)cc1-n1cc(NC(=O)Nc2c(F)cccc2Cl)cn1 [Compound 27, 4-(4-(3-(2-chloro-6-fluorophenyl)ureido)-1H-pyrazol-1-yl)-5-methyl-N-(oxetan-3-yl)thiophene-2-carboxamide] | – | – | – | 96.6% | 93.3% | 97.9%
